# Data: PubChem BioAssay (NCI)
#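 Interpolation was linear, between the two tested concentrations surrounding the appropriate level; five concentrations were tested over 48 hours in 96-well plates. The concentration for 50% growth inhibition is given as GI50. The concentration for full growth arrest is given as TGI.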
# Experiments:
# Assay in all cases: inhibition of tumour cell growth, NCI panel, 48 h
# 786-0 renal = system: 786-0 renal
# A498 renal = system: A498 renal
# A549 NSCLC = system: A549 NSCLC
# ACHN renal = system: ACHN renal
# BT-549 breast = system: BT-549 breast
# CAKI-1 renal = system: CAKI-1 renal
# CCRF-CEM leukemia = system: CCRF-CEM leukemia
# COLO 205 colon = system: COLO 205 colon
# DU-145 prostate = system: DU-145 prostate
# EKVX NSCLC = system: EKVX NSCLC
# HCC-2998 colon = system: HCC-2998 colon
# HCT-116 colon = system: HCT-116 colon
# HCT-15 colon = system: HCT-15 colon
# HL-60(TB) leukemia = system: HL-60(TB) leukemia
# HOP-62 NSCLC = system: HOP-62 NSCLC
# HOP-92 NSCLC = system: HOP-92 NSCLC
# HS 578T breast = system: HS 578T breast
# HT29 colon = system: HT29 colon
# IGROV1 ovarian = system: IGROV1 ovarian
# K-562 leukemia = system: K-562 leukemia
# KM12 colon = system: KM12 colon
# LOX IMVI melanoma = system: LOX IMVI melanoma
# M14 melanoma = system: M14 melanoma
# MALME-3M melanoma = system: MALME-3M melanoma
# MCF7 breast = system: MCF7 breast
# MDA-MB-231 breast = system: MDA-MB-231 breast
# MDA-MB-435 = system: MDA-MB-435
# MOLT-4 leukemia = system: MOLT-4 leukemia
# NCI-H226 lung = system: NCI-H226 lung
# NCI-H23 lung = system: NCI-H23 lung
# NCI-H460 lung = system: NCI-H460 lung
# NCI-H522 lung = system: NCI-H522 lung
# NCI/ADR-RES ovarian = system: NCI/ADR-RES ovarian
# OVCAR-3 ovarian = system: OVCAR-3 ovarian
# OVCAR-4 ovarian = system: OVCAR-4 ovarian
# OVCAR-5 ovarian = system: OVCAR-5 ovarian
# OVCAR-8 ovarian = system: OVCAR-8 ovarian
# PC-3 prostate = system: PC-3 prostate
# RPMI-8226 leukemia = system: RPMI-8226 leukemia
# RXF 393 renal = system: RXF 393 renal
# SF-268 CNS = system: SF-268 CNS
# SF-295 CNS = system: SF-295 CNS
# SF-539 CNS = system: SF-539 CNS
# SK-MEL-2 melanoma = system: SK-MEL-2 melanoma
# SK-MEL-28 melanoma = system: SK-MEL-28 melanoma
# SK-MEL-5 melanoma = system: SK-MEL-5 melanoma
# SK-OV-3 ovarian = system: SK-OV-3 ovarian
# SN12C renal = system: SN12C renal
# SNB-19 CNS = system: SNB-19 CNS
# SNB-75 CNS = system: SNB-75 CNS
# SR leukemia = system: SR leukemia
# SW-620 colon = system: SW-620 colon
# T-47D breast = system: T-47D breast
# TK-10 renal = system: TK-10 renal
# U251 CNS = system: U251 CNS
# UACC-257 melanoma = system: UACC-257 melanoma
# UACC-62 melanoma = system: UACC-62 melanoma
# UO-31 renal = system: UO-31 renal
structure (smiles),measurement,setting,value
CCCS(=O)(=O)Nc1ccc(F)c(C(=O)c2c[nH]c3ncc(Cl)cc23)c1F,GI50,786-0 renal,10.7 µM
same,TGI,786-0 renal,74.9 µM
same,GI50,A498 renal,5.14 µM
same,TGI,A498 renal,24 µM
same,GI50,A549 NSCLC,9.87 µM
same,TGI,A549 NSCLC,56.5 µM
same,GI50,ACHN renal,3.78 µM
same,TGI,ACHN renal,66.4 µM
same,GI50,BT-549 breast,13.3 µM
same,TGI,BT-549 breast,57.9 µM
same,GI50,CAKI-1 renal,3.65 µM
same,TGI,CAKI-1 renal,56.9 µM
same,GI50,CCRF-CEM leukemia,16.6 µM
same,TGI,CCRF-CEM leukemia,99.1 µM
same,GI50,COLO 205 colon,116 nM
same,TGI,COLO 205 colon,17.3 µM
same,GI50,DU-145 prostate,7.55 µM
same,TGI,DU-145 prostate,80.6 µM
same,GI50,EKVX NSCLC,18.3 µM
same,TGI,EKVX NSCLC,80.9 µM
same,GI50,HCC-2998 colon,17.7 µM
same,TGI,HCC-2998 colon,72.4 µM
same,GI50,HCT-116 colon,6.21 µM
same,TGI,HCT-116 colon,62.7 µM
same,GI50,HCT-15 colon,6.62 µM
same,TGI,HCT-15 colon,> 97.3 µM
same,GI50,HL-60(TB) leukemia,20 µM
same,TGI,HL-60(TB) leukemia,57.4 µM
same,GI50,HOP-62 NSCLC,10.2 µM
same,TGI,HOP-62 NSCLC,65.8 µM
same,GI50,HOP-92 NSCLC,3.2 µM
same,TGI,HOP-92 NSCLC,15.4 µM
same,GI50,HS 578T breast,3.9 µM
same,TGI,HS 578T breast,26.7 µM
same,GI50,HT29 colon,200 nM
same,TGI,HT29 colon,21.8 µM
same,GI50,IGROV1 ovarian,5 µM
same,TGI,IGROV1 ovarian,75.4 µM
same,GI50,K-562 leukemia,9.87 µM
same,TGI,K-562 leukemia,> 81.5 µM
same,GI50,KM12 colon,11.4 µM
same,TGI,KM12 colon,> 79.8 µM
same,GI50,LOX IMVI melanoma,2050 nM
same,TGI,LOX IMVI melanoma,31.1 µM
same,GI50,M14 melanoma,109 nM
same,TGI,M14 melanoma,5.18 µM
same,GI50,MALME-3M melanoma,28.1 nM
same,TGI,MALME-3M melanoma,174 nM
same,GI50,MCF7 breast,20.2 µM
same,TGI,MCF7 breast,69.9 µM
same,GI50,MDA-MB-231 breast,9.09 µM
same,TGI,MDA-MB-231 breast,33.7 µM
same,GI50,MDA-MB-435,337 nM
same,TGI,MDA-MB-435,29.6 µM
same,GI50,MOLT-4 leukemia,14.7 µM
same,TGI,MOLT-4 leukemia,> 83 µM
same,GI50,NCI-H226 lung,16.2 µM
same,TGI,NCI-H226 lung,78.1 µM
same,GI50,NCI-H23 lung,20.7 µM
same,TGI,NCI-H23 lung,> 91.6 µM
same,GI50,NCI-H460 lung,5.92 µM
same,TGI,NCI-H460 lung,50.3 µM
same,GI50,NCI-H522 lung,8.34 µM
same,TGI,NCI-H522 lung,31.5 µM
same,GI50,NCI/ADR-RES ovarian,14.8 µM
same,TGI,NCI/ADR-RES ovarian,> 90.3 µM
same,GI50,OVCAR-3 ovarian,15.4 µM
same,TGI,OVCAR-3 ovarian,58.7 µM
same,GI50,OVCAR-4 ovarian,9.74 µM
same,TGI,OVCAR-4 ovarian,75.7 µM
same,GI50,OVCAR-5 ovarian,23.3 µM
same,TGI,OVCAR-5 ovarian,> 92.8 µM
same,GI50,OVCAR-8 ovarian,8.81 µM
same,TGI,OVCAR-8 ovarian,61.8 µM
same,GI50,PC-3 prostate,10.6 µM
same,TGI,PC-3 prostate,77.6 µM
same,GI50,RPMI-8226 leukemia,25.2 µM
same,TGI,RPMI-8226 leukemia,> 100 µM
same,GI50,RXF 393 renal,5.23 µM
same,TGI,RXF 393 renal,22.4 µM
same,GI50,SF-268 CNS,13.5 µM
same,TGI,SF-268 CNS,73 µM
same,GI50,SF-295 CNS,5.35 µM
same,TGI,SF-295 CNS,45.6 µM
same,GI50,SF-539 CNS,9.1 µM
same,TGI,SF-539 CNS,57.4 µM
same,GI50,SK-MEL-2 melanoma,4.37 µM
same,TGI,SK-MEL-2 melanoma,16.4 µM
same,GI50,SK-MEL-28 melanoma,109 nM
same,TGI,SK-MEL-28 melanoma,9.62 µM
same,GI50,SK-MEL-5 melanoma,1240 nM
same,TGI,SK-MEL-5 melanoma,19 µM
same,GI50,SK-OV-3 ovarian,3.76 µM
same,TGI,SK-OV-3 ovarian,36.5 µM
same,GI50,SN12C renal,7.66 µM
same,TGI,SN12C renal,84.9 µM
same,GI50,SNB-19 CNS,29.7 µM
same,TGI,SNB-19 CNS,99.7 µM
same,GI50,SNB-75 CNS,4.9 µM
same,TGI,SNB-75 CNS,24.8 µM
same,GI50,SR leukemia,4.68 µM
same,TGI,SR leukemia,48 µM
same,GI50,SW-620 colon,22.6 µM
same,TGI,SW-620 colon,87.3 µM
same,GI50,T-47D breast,8.55 µM
same,TGI,T-47D breast,65 µM
same,GI50,TK-10 renal,6.3 µM
same,TGI,TK-10 renal,35.9 µM
same,GI50,U251 CNS,9.08 µM
same,TGI,U251 CNS,60.5 µM
same,GI50,UACC-257 melanoma,129 nM
same,TGI,UACC-257 melanoma,1180 nM
same,GI50,UACC-62 melanoma,63.9 nM
same,TGI,UACC-62 melanoma,2140 nM
same,GI50,UO-31 renal,6.4 µM
same,TGI,UO-31 renal,66.3 µM
